In patent US20170176470A1, “DETECTION OF CARBOXYALKYLPYRROLE OR PENTYLPYRROLE ETHANOLAMINE PHOSPHOLIPIDS” (CASE WESTERN RESERVE UNIVERSITY, priority 2015, published 2017):

Experiments:
[1] = molecular target: T1, recombinant mouse TLR2-Fc fusion protein (Mus musculus, UniProt Q9QUN7); assay: Competitive binding of CEP-PE vs CEP-HSA to recombinant mouse TLR2-Fc protein (ELISA); details: vesicles 0 to 125 μM; coated CEP-HSA; mTLR2-Fc 1 μg/ml
T1 construct: purchased R&D systems (Minneapolis, Minn.)
Method: Small unilamellar vesicles of CEP-DPPE (125 μM) in phosphate buffered saline (PBS) were prepared by extruding (20 times) the hydrated phospholipids through a 0.1 μm polycarbonate filter using an Avanti Mini-Extruder (Avanti Polar Lipids, Inc., Alabaster, Ala.). The resulting solution was diluted to various concentrations by addition of PBS. To a 96-well ELISA plate, 100 μl of 5 μM CEP in CEP-HSA protein in PBS solution was added into each well and the plate was incubated at 37° C. for 1 h. PBS (100 μl) was used as control. Then the wells were washed with PBS and the non-binding sites on wells were blocked with 350 μL of 4% bovine serum albumin (BSA) in PBS buffer for 1 h at 37° C. blocking was completed, a mixture of recombine-ant mouse TLR2-Fc protein at a fixed concentration (1 μg/ml, in 1% BSA-PBS) with an equal volume of CEP-PE vesicles at concentrations from 0 to 125 μM was added to each well, and the plate was allowed to incubate for 1 h at 37° C. DPPE vesicle solutions at 0, 50, 75 and 120 μM concentration, prepared by sonication, were used as parallel samples. After washing the plate with PBS containing 0.1% Tween-20 (PBST) buffer, 100 μL of 1:2,000 diluted goat anti-human Fc antibody in PBST buffer was added to each well. […] After an additional 30 min incubation, the absorbance for each well was read at 405 nm with a microplate reader (Bio-Rad, Hercules, Calif.).

[2] = system: PLD from Streptomyces chromofuscus; assay: PLD-catalyzed hydrolysis of pyrrole-modified PEs, monitored by LC-MS; format: biochemical
Method: The isolated lipids were hydrolyzed with PLD (Streptomyces chromofuscus) by a modification of the method described previously for hydrolysis of isolevuglandin modified PEs. Lipids were re-suspended in 50 μL of methanol. Then 450 μL of HBSS buffer (Thermo Scientific, Waltham, Mass.) supplemented with 5 mM CaCl2 and 0.1 mM EDTA was added. The mixture was incubated at 37° C. for 30 min, and then was sonicated for 10 min. The cloudy lipid mixture was passed through a 0.1 μm polycarbonate filter (20 times) for extrusion using an Avanti Mini- Extruder Set (Avanti Polar Lipids, Inc., Alabaster, Ala.) to generate a homogeneous unilammelar lipid vesicle solution. Then 280 units of PLD (Streptomyces chromofuscus) were added to each sample. The mixture was incubated under argon with gentle shaking at 37° C. overnight. The next day the samples were evaporated to dryness under a stream of nitrogen for 2 h. […]
To verify CEP-PEs are substrates of PLD, CEP-DPPE and d4-CEP-PE standards were treated with PLD from Streptomyces chromofuscus. Then the generation of CEP-ETN and d4-CEPETN was monitored by LC-MS/MS, respectively. […]
Total phospholipids isolated from biological samples by a modified Bligh & Dyer method, were prepared for phospholipolysis by conversion into small unilamellar vesicles (SUVs) by extrusion. […] The resulting product mixture was then analyzed by injection into the LC-MS/MS. […]

HUVECs = assay: HUVEC tube formation assay; format: cell-based, human
Method: For comparing the ability of various CEP-derivatives to promote tube formation (FIG. 2A) HUVECs were seeded on Matrigel-coated 48 well plates (BD Bioscience). The DMEM-F12 medium (Media lab, Cleveland Clinic, Cleveland, Ohio) was supplemented with various CEP-derivatives as indicated and incubated with cultured HUVECs at 37° C. for 8 h. Tube formation by HUVECs was observed using a phase contrast inverted microscope. Two independent assays were performed by two operators, one used PBS as control and the other used DPPE vesicles as control. The data were quantified either by measuring the length of tubes or by the number of branches. For testing the effects of oxPAPC, a TLR2 inhibitor, (FIG. 2C) or TLR2 knockdown (FIG. 2D) on the ability of CEP-PE to promote tube formation, growth factor-reduced (GFR) basement membrane extract (Cultrex BME, Trevigen, Gaithersburg, Md.; 175 μl/well) was added to the wells of an ice-cold 48-well plate and then incubated at 37° C. for 1 h to allow the gel to solidify. Overnight-starved, trypsin detached and extensively washed HUVECs (2.5×10^4 cells/well; Promocell, GmbH, Heidelberg, Germany) in a basal Growth Medium 2 (GM2; Promocell, GmbH) were seeded onto the BME coated wells. […] They were further thoroughly washed three times with GM2 basal medium, counted and seeded onto BME coated wells. […]

T1 sequence (Q9QUN7 with tags, fused parts or gaps limits assumed): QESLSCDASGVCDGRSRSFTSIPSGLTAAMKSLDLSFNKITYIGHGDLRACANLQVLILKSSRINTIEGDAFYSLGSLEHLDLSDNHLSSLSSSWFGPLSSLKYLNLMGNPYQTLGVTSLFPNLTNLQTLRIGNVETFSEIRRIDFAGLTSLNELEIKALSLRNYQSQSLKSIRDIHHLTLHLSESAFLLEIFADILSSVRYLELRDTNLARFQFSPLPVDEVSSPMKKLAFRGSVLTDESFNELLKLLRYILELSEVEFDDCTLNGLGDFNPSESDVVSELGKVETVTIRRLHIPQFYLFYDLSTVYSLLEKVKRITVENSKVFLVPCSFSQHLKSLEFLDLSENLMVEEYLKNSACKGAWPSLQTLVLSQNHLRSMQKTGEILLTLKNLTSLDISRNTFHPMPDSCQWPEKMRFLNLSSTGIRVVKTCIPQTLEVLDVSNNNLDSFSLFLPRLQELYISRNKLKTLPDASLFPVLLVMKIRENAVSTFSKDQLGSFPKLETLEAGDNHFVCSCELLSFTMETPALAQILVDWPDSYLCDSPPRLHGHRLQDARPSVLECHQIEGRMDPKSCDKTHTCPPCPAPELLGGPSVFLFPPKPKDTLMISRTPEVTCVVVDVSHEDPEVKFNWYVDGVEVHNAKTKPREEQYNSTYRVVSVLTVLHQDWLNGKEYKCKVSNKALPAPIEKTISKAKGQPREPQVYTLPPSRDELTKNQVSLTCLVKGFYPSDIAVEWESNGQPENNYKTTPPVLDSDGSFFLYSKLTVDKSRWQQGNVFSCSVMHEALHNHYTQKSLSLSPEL

Compound | competition with CEP-HSA in binding with mTLR2-Fc protein [1] | release of CEP-ETN by PLD ([2]; control experiment, incubation for 1 h (data not shown)) | hydrolysis by PLD (Streptomyces chromofuscus) to the modified ethanolamine ([2]; standards treated with PLD, LC-MS/MS or LC-MS) | ability to induce tube formation by HUVECs after knockdown of TLR2 by TLR2 siRNA (HUVECs; HUVECs with transient TLR2 knockdown, 1-500 nM CEP-DPPE, 12 h) | tube formation by HUVECs (HUVECs; cultured HUVECs on Matrigel, 8 h, 0.5 μM CEP-DPPE, PBS or DPPE as negative control)
CCCCCCCCCCCCCCCC(=O)OC[C@H](COP(=O)(O)OCCN)OC(=O)CCCCCCCCCCCCCCC [DPPE, 1,2-Dipalmitoyl-sn-glycero-3-phosphoethanolamine, reference compound] | does not inhibit |  |  |  | 
CEP derivative of 1,2-dipalmitoyl-sn-glycero-3-phosphoethanolamine [CEP-DPPE] | compete with CEP-HSA | quantitative release | readily hydrolyzed | abolished | induces tube formation
